Several values for one entry are separate records, joined by “and”; a condition that tells them apart may be missing. Equal values may be shown once. Bridge positions count the residues as written; N and C are the ends. Square brackets hold non-standard residues; d marks the D form. Peptide text beside a SMILES is read from it. R8 = C=CCCCCCC[C@@](C)(N)C(=O)O; S5 = C=CCCC[C@](C)(N)C(=O)O

Test system in one series: not given
Test: not given
The following applies: pH 7.4. The series is classed as physicochemical.
For the molecule Ac-HEAEDLFYQS-NH2 [Peptide 9], the “% Helicity” value worked out at 5.9%.
For Ac-IEEQAKTFLDKFNHE-NH2 [Peptide 11], the “% Helicity” value stood at 9.6%.
Turning to “Ac-IEEQAKTFLDKFNHER8EDLFYQS5-NH2 (sidechain bridge or staple) [Peptide 8]”, the “% Helicity” value was 72% and 72.2%.
“Ac-IEEQAKTFLDKFR8HEAEDLS5YQS-NH2 (sidechain bridge or staple) [Peptide 7]”: the “% Helicity” value turned out to be 54.5%.
Consider “Ac-IEEQAKTFLDKR8NHEAEDS5FYQS-NH2 (sidechain bridge or staple) [Peptide 6]”, for which the “% Helicity” value came to 23.5%.
“Ac-IEEQAKTFR8DKFNHES5EDLFYQS-NH2 (sidechain bridge or staple) [Peptide 5]”: the “% Helicity” value turned out to be 31.3%.
As for “Ac-IEEQAR8TFLDKFS5HEAEDLFYQS-NH2 (sidechain bridge or staple) [Peptide 4]”, the “% Helicity” value is given as 57.9%.
Same read-out and setting: for “Ac-IEEQR8KTFLDKS5NHE-NH2 (sidechain bridge or staple) [Peptide 12]” the value was 12.2%; for “Ac-IEEQR8KTFLDKS5NHEAEDLFYQS-NH2 (sidechain bridge or staple) [Peptide 3]”, 55.6%; for “Ac-IR8EQAKTFS5LKFNHEAEDLFYQS-NH2 (sidechain bridge or staple) [Peptide 2]”, 35.4%.
Take Ac-TFLDKFNHEAEDL-NH2 [Peptide 13]: the “% Helicity” value was found to be 8.6%.
Take “Ac-TFR8DKFNHES5EDL-NH2 (sidechain bridge or staple) [Peptide 14]”: the “% Helicity” value was found to be 16.1%.
For “Ac-TS5LDKS5NHEAEDL-NH2 (sidechain bridge or staple) [Peptide 15]”, the “% Helicity” value worked out at 21.0%.

The next series has as its system SARS‐CoV‐2 spike (Wuhan‐Hu‐1 strain) pseudovirus with HIV core, entry into 293 T ACE2 expressing cells.
Test: not given
Conditions: not given
It counts as cell-based.
In the case of “Ac-FHTSEYDEQNEIEAAQLFKDFLK-NH2 [Scrambled negative control]”, the “inhibition of viral entry” value is recorded as “None of these compounds including stapled peptide 8 inhibited viral entry”.
For “Ac-IEEQAKTFLDKFNHER8EDLFYQS5-NH2 (sidechain bridge or staple) [Peptide 8]”, the “inhibition of viral entry” value is reported as “None of these compounds including stapled peptide 8 inhibited viral entry”.
Still for that read-out and setting: for “IEEQAKR8FLDKFNS5EAEDLFYQS (sidechain bridge or staple) [Stapled negative control]” the value was “None of these compounds including stapled peptide 8 inhibited viral entry”.

Test system in a further series: not listed separately
Kind of series: circular dichroism. The following applies: PBS; pH 7.4; rt °C; 100 uM. On the technique in general: Circular dichroism is the unequal absorption of left and right circularly polarised light.
In the case of `CC(=O)N[C@H](C(=O)N[C@@]1(C)CCCC=CCCC[C@@](C)(C(=O)N[C@@H](CC(N)=O)C(=O)N[C@@H](Cc2c[nH]cn2)C(=O)N[C@@H](CCC(=O)O)C(=O)N[C@@H](C)C(=O)N[C@@H](CCC(=O)O)C(=O)N[C@@H](CC(=O)O)C(=O)N[C@@H](CC(C)C)C(N)=O)NC(=O)[C@H](CCCCN)NC(=O)[C@H](CC(=O)O)NC(=O)[C@H](CC(C)C)NC1=O)[C@@H](C)O`, the helicity was 21%.
Still for that read-out and setting: for `CC(=O)N[C@@H](Cc1c[nH]cn1)C(=O)N[C@@H](CCC(=O)O)C(=O)N[C@@]1(C)CCCC=CCCC[C@@](C)(C(=O)N[C@@H](Cc2ccc(O)cc2)C(=O)N[C@@H](CCC(N)=O)C(=O)N[C@@H](CO)C(N)=O)NC(=O)[C@H](CC(C)C)NC(=O)[C@H](CC(=O)O)NC(=O)[C@H](CCC(=O)O)NC1=O` (Ac-HE[S5]EDL[S5]YQS-NH2; staple 3-7) the value was 33.4%.
As to `CC[C@H](C)[C@H](NC(C)=O)C(=O)N[C@@H](CCC(=O)O)C(=O)N[C@@H](CCC(=O)O)C(=O)N[C@@H](CCC(N)=O)C(=O)N[C@]1(C)CCCCCC/C=C/CCC[C@@](C)(C(=O)N[C@@H](CC(N)=O)C(=O)N[C@@H](Cc2c[nH]cn2)C(=O)N[C@@H](CCC(=O)O)C(N)=O)NC(=O)[C@H](CCCCN)NC(=O)[C@H](CC(=O)O)NC(=O)[C@H](CC(C)C)NC(=O)[C@H](Cc2ccccc2)NC(=O)[C@H]([C@@H](C)O)NC(=O)[C@H](CCCCN)NC1=O` (Ac-IEEQ[R8]KTFLDK[S5]NHE-NH2; staple (E) 5-12), the helicity is 12.2%.
Molecule `CC(=O)N[C@H](C(=O)N[C@@H](Cc1ccccc1)C(=O)N[C@]1(C)CCCCCC/C=C/CCC[C@@](C)(C(=O)N[C@@H](CCC(=O)O)C(=O)N[C@@H](CC(=O)O)C(=O)N[C@@H](CC(C)C)C(N)=O)NC(=O)[C@H](CCC(=O)O)NC(=O)[C@H](Cc2c[nH]cn2)NC(=O)[C@H](CC(N)=O)NC(=O)[C@H](Cc2ccccc2)NC(=O)[C@H](CCCCN)NC(=O)[C@H](CC(=O)O)NC1=O)[C@@H](C)O` (Ac-TF[R8]DKFNHE[S5]EDL-NH2; staple (E) 3-10) came in with a helicity of 16.1%.
Ac-HEAEDLFYQS-NH2 returned a helicity of 5.9%.
In turn, Ac-IEEQAKTFLDKFNHE-NH2 showed a helicity of 9.6%.
Still for that read-out and setting: for Ac-TFLDKFNHEAEDL-NH2 the value was 8.6%.

These data come from PMC7883042 (Peptide Science (Hoboken, N.j.), 2021).
